Where no end group is shown, it is not given here.
System: diet-induced obese mice
Experiment: Fasting plasma glucose and insulin measurements
Format: in vivo, mouse
Details: 16 h fast, after 12 weeks infusion, 29 weeks on VHFD
Description: FIGS. 5A-B are a pair of bar graphs showing that GLP-1(32-36)amide attenuates the development of fasting hyperglycemia and hyperinsulinemia in high fat-fed mice. Mice fed the VHFD develop hyperglycemia, hyperinsulinemia, diabetes, and insulin resistance during weeks 15 to 29 of diet-induced obesity (21-35 weeks of age, respectively). A 12-week infusion of either control vehicle or pentapeptide started at 17 weeks on high-fat diet (23 weeks of age). FIG. 5A: Fasting plasma glucose levels *p<0.0004 vehicle vs. GLP-1(32-36)a. FIG. 5B: Fasting insulin levels *p<0.042 vehicle vs. GLP-1(32-36)a. The studies are in mice fed a VHFD for 15 weeks, two weeks before beginning the continuous infusions of either control vehicle or pentapeptide. Continuous infusions of vehicle or pentapeptide GLP-1(32-36)amide were give during weeks 17 to 29 of diet (23 to 35 weeks of age). Weeks denoted on the ordinate scales refers to weeks of age. N=6 mice per group. Values are means+/−SEMs.
Plasma obtained by tail nick from mice fasted for 16 hrs was assayed for glucose by using the one touch ultra-mini glucometer (Life Scan, Johnson and Johnson company) and for insulin with a rat/mouse Elisa kit (Crystal Chem, Downers Grove, Ill.).
Fasting immunoreactive insulin levels: whole blood samples were spun in a refrigerated microfuge at 14,000 rpm for 10 minutes and transferred to a clean tube. […]

## LVKGRamide (LVKGR-NH2) [GLP-1(32-36)amide, pentapeptide derived from the C-terminus of the glucoincretin hormone GLP-1]
Vehicle 8.8 (FIG. 5A)
  fasting plasma glucose: 5.5 mM
Vehicle 300 (FIG. 5B)
  fasting plasma insulin: 250 pM
